Results from US12458661B2, “Selenium disulfide compositions for use in treating meibomian gland dysfunction” (priority 2016, dated 2025).

Assay: Aggregation of SeS2 on contact with aqueous medium
Type: physicochemical
Text: Contacting SeS2 with aqueous medium causes immediate and spontaneous aggregation, such that SeS2 particles with an average size of 5 to 10 microns will form large aggregates of 50 to 500 microns average size. […] Surfactants and various suspending agents are required to stabilize SeS2 suspension in liquid and semi-solid dosage forms in order to enable its topical application.
Selenium disulfide forms agglomerates under aqueous conditions. Contacting selenium disulfide with aqueous medium causes immediate and spontaneous aggregation, causing selenium disulfide particles, with an initial average diameter of 5 to 10 μm, to aggregate into large clumps of 50 to 500 μm average diameter.

In the case of `S=[Se]=S` [SeS2, selenium disulfide], the “Average size of aggregates formed on contact with aqueous medium” value (SeS2 particles of initial average size 5 to 10 microns) is reported as 50 to 500 microns and the “Average diameter of clumps formed on contact with aqueous medium” value (initial average diameter 5 to 10 μm) is reported as 50 to 500 μm.
